Test results as given in US4271155A, “Water soluble hydrazones of 3-formylrifamycin SV, antibacterial compositions thereof and method of use thereof” (Gruppo Lepetit S.p.A., priority 1979, dated 1981).
Where two headings read alike, the source gives them in different places.

What was measured:
[1] = solubility in water / aqueous vehicles; format: physicochemical
Description: The new rifamycins of formula I are in fact completely soluble in water or in mixture of water with other pharmaceutically acceptable solvents mixable with water. Useful solvents which can be admixed with water are for instance the polyhydric aliphatic alcohols such as ethylene glycol, propylene glycol, glycerine and mixtures thereof. These solutions can be added with buffers to maintain the pH range at a physiological value. For instance, ten grams of the compound of formula I wherein R is methyl, X is [drawing 3] are completely soluble in 100 ml of water buffered at pH 7.38 (phosphate buffer). The corresponding compound wherein A and B are both the sodium cation is even more soluble; in fact 100 ml of water can dissolve about fifty grams of said compound.

[2] = test system: Staphylococcus aureus Tour; assay: ED50 in mice infected with Staphylococcus aureus Tour; format: in vivo; settings: sc
Description: (§1) The values of the ED50 of the compounds of examples 2, 3 and 4 against the two microbial strains and the toxicity (LD50) of the compounds are reported in the following Table

Escherichia coli = assay: ED50 in mice infected with Escherichia coli; format: in vivo; settings: sc, read-out: ED50, E. coli
Description: as §1

toxicity (LD50) in mice = settings: mouse, in vivo
Description: as §1

[3] = ip, read-out: LD50 in mice, i.p.
[4] = iv, read-out: LD50 in mice, i.v.

SMILES | completely soluble in 100 ml of water ([1]; per 100 ml of water buffered at pH 7.38 (phosphate buffer)) | amount that 100 ml of water can dissolve ([1]; per 100 ml of water, A and B both sodium cation) | ED50 [2] [mg/kg] | ED50 (Escherichia coli) [mg/kg] | LD50 (toxicity (LD50) in mice; [3]) [mg/kg] | LD50 (toxicity (LD50) in mice; [4]) [mg/kg]
COC1C=COC2(C)Oc3c(C)c(O)c4c(O)c(c(C=NN(C)CC(C)OP(=O)(O)O)c(O)c4c3C2=O)NC(=O)C(C)=CC=CC(C)C(O)C(C)C(O)C(C)C(OC(C)=O)C1C (centres unmarked) [listing 1 of 2 here] | ten |  |  |  |  | 
COC1C=COC2(C)Oc3c(C)c(O)c4c(O)c(c(C=NN(C)CC(C)OP(=O)(O)O)c(O)c4c3C2=O)NC(=O)C(C)=CC=CC(C)C(O)C(C)C(O)C(C)C(OC(C)=O)C1C (centres unmarked) [listing 2 of 2 here] |  | about fifty |  |  |  | 
COC1C=COC2(C)Oc3c(C)c(O)c4c(O)c(c(C=NN(C)CC(C)OP(=O)(O)O)c(O)c4c3C2=O)NC(=O)C(C)=CC=CC(C)C(O)C(C)C(O)C(C)C(OC(C)=O)C1C (centres unmarked) [Example 2, 3-[[[2-(Phosphonoxy)propyl]methylhydrazino]methyl]rifamycin SV] |  |  | 0.812 | 98.5 | 770 | 665
CCC(CN(C)N=Cc1c2c(O)c3c(O)c(C)c4c(c3c1O)C(=O)C(C)(OC=CC(OC)C(C)C(OC(C)=O)C(C)C(O)C(C)C(O)C(C)C=CC=C(C)C(=O)N2)O4)OP(=O)(O)O (centres unmarked) [Example 3, 3-[[[2-(Phosphonoxy)butyl]methylhydrazono]methyl]rifamycin SV] |  |  | 0.812 | 130 | > 500 | 525
COC1C=COC2(C)Oc3c(C)c(O)c4c(O)c(c(C=NN(C)CCOP(=O)(O)O)c(O)c4c3C2=O)NC(=O)C(C)=CC=CC(C)C(O)C(C)C(O)C(C)C(OC(C)=O)C1C (centres unmarked) [Example 4, 3-[[[2-(Phosphonoxy)ethyl]methylhydrazono]methyl]rifamycin SV] |  |  | 1.51 | 106 | 592 | 507
